Legend:
[1] = tested on: central benzodiazepine receptors; test: In vitro binding, [3H]-Flumazenil, brain cortex membrane preparation; conditions: @ 10^−5M, [3H]-Flumazenil
Experimental: Non-specific binding was determined with Flumazenil (20 μM). In both cases, incubations were terminated by rapid filtration through Whatman GF/B glass fibre. Filters were immediately washed 3 times with 5 mL ice-cold 50 mM Tris/HCl at pH 7.4. Filters were counted in a β-scintillation counter (Packard) to measure the amount of bound radioactivity. The IC50 of the compounds for the peripheral benzodiazepine binding site and the central benzodiazepine receptor were calculated using Kell 6 software.

[2] = Biodistribution of 18F-labelled tracers in rats; type: in vivo
Experimental: [^18F]Fluoride, in the form of H^18F, was produced by the ^18O(p,n)^18F nuclear reaction by bombardment of ^18O-enriched water target. The aqueous [^18F]fluoride solution was added to a 2.5-mL wheaton vial containing dry acetonitrile (1 mL), Kryptofix 2.2.2 (5 mg, 13.3 μmol) and potassium carbonate (2 mg, 14.5 μmol). The solvent was evaporated under a stream of nitrogen at 90° C. with a reducing vacuum. This azeotropic drying was repeated twice by further addition of acetonitrile (2×1 mL). The tosylate precursor 2-(2-(4-(2-tosylethoxy)phenyl)-6-chloroimidazo[1,2-a]pyridin-3-yl)-N,N-diethylacetamide (2 mg, 3.6 μmol) was dissolved in acetonitrile (1 ml) and added to the dried K222.K2CO3.KF complex. Stirring and heating at 90° C. continued for 10 to 15 mins before the reaction mixture was diluted with mobile phase and purified by reverse phase HPLC on an Alltech Alltima, C18, 10μ, 250×22 mm column eluting at 10 mLs/min with 45% acetonitrile, 55% water with 0.1% TFA.
(§1) The biodistribution of PBR132* was undertaken in SD rats and analysis up to 4 h p.i. in the brain and peripheral tissues was performed. The specificity and selectivity of the tracer were assessed by pre-treatment with PBR and Central benzodiazepine receptor (CBR) specific ligands (1 mg/kg) 5 min prior to injection of PBR132*.
(§2) The biodistribution of PBR 147* was performed in SD rats and brain and peripheral tissues were analysised at 15, 30 min, 1, and 4 h p.i. The specificity and selectivity of the tracer was assessed by pre-treatment of the animals with the PBR ligands PK11195 and Ro 5-4864 and with Flumazenil for CBR at 1 mg/kg 5 min prior to injection of PBR 147*
(§3) The biodistribution of PBR102* and PBR111* were performed in SD rats and brain and peripheral tissues analysed at 15, 30 min, 1, and 4 h p.i. The specificity and selectivity of the tracers were assessed by pre-treatment with the PBR ligands PK11195 and Ro 5-4864 and with Flumazenil for CBR at 1 mg/kg 5 min prior to injection of the corresponding tracers.
(§4) The specificity and selectivity of the tracers were assessed by pre-treatment with the PBR ligands PK11195 and Ro 5-4864 and with Flumazenil for CBR at 1 mg/kg 5 min prior to injection of the corresponding tracers.

[3] = molecular target: T1, peripheral benzodiazepine receptors (Rattus norvegicus, UniProt P16257); test: In vivo blocking / competition of tracer uptake by pre-treatment with PBR and CBR ligands; conditions: rats; for Tracer uptake after pre-treatment with PK 11195 / Tracer uptake after pre-treatment with Ro 5-4864: PBR-expressing tissues (brain/peripheral organs, adrenals apart); for Tracer uptake after pre-treatment with flumazenil (central benzodiazepine ligand): flumazenil 1 mg/kg 5 min prior to tracer, brain or peripheral organs
T1 construct: high uptake in the tissues which have known PBR sites; from tissue; host or cells: organs of living SD rats (brain and peripheral tissues), in vivo
Experimental: The criteria for significance were **p<0.01 (highly significant) and *p<0.05 (significant). No stars implies not statistical difference from normals or controls.
as §1, §2, §3, §4

[4] = SD rats, 15 min, decay correction not stated
[5] = SD rats, 4 hours, decay correction not stated
[6] = rats, 15 min, corrected for decay of 18F
[7] = rats, 30 min, corrected for decay of 18F
[8] = rats, 60 min, corrected for decay of 18F
[9] = rats, 4 hours, corrected for decay of 18F

CCN(CC)C(=O)Cc1c(-c2ccc(OCCCF)cc2)nn2c(C)cc(C)nc12 [PBR 146, 2-(2-(4-(3-fluoropropoxy)phenyl)-5,7-dimethylpyrazolo[1,5-a]pyrimidin-3-yl)-N,N-diethylacetamide]
CBR, % @ 10^−5M [1]: 50% @ 10^−5M
chromatographic logP (LogP HPLC): 3.16 ± 0.1

CCN(CC)C(=O)Cc1c(-c2ccc(C(C)(C)C)cc2)nc2ccc([18F])nn12 [PBR132*, 2-(2-(4-tert-butylphenyl)-6-fluoroimidazo[1,2-b]pyridazin-3-yl)-N,N-diethylacetamide]
Biodistribution: Bone [2, 4]: 1 % ID/g
Biodistribution: Heart [2, 4]: 8 % ID/g
Biodistribution: Kidney [2, 4]: 4 % ID/g
Biodistribution: Lungs [2, 4]: 16 % ID/g
Biodistribution: Olfactory bulbs [2, 4]: 0.63 % ID/g
Biodistribution: Adrenals ([2]; SD rats, 30 min, decay correction not stated): 13 % ID/g
Biodistribution: Bone [2, 5]: 3.3 % ID/g
Biodistribution: Heart [2, 5]: less than 2.3 % ID/g
Biodistribution: Kidney [2, 5]: less than 2.3 % ID/g
Biodistribution: Lungs [2, 5]: less than 2.3 % ID/g
Biodistribution: Olfactory bulbs [2, 5]: 0.25 % ID/g
Blood activity level / concentration in the blood over the 4 h study period ([2]; SD rats, throughout 15 min to 4 h): low
Biodistribution: Adrenals [2, 6]: 10.03 ± 1.11 % ID/g
Biodistribution: Bladder [2, 6]: 0.73 ± 0.33 % ID/g
Biodistribution: Blood [2, 6]: 0.41 ± 0.05 % ID/g
Biodistribution: Bone [2, 6]: 1.04 ± 0.14 % ID/g
Biodistribution: Brain [2, 6]: 0.35 ± 0.03 % ID/g
Biodistribution: GIT [2, 6]: 1.08 ± 0.08 % ID/g
Biodistribution: Heart [2, 6]: 8.13 ± 0.77 % ID/g
Biodistribution: Kidney [2, 6]: 4.10 ± 0.28 % ID/g
Biodistribution: Liver [2, 6]: 1.22 ± 0.17 % ID/g
Biodistribution: Lungs [2, 6]: 16.09 ± 2.56 % ID/g
Biodistribution: Muscle [2, 6]: 0.89 ± 0.28 % ID/g
Biodistribution: Olfactory bulbs [2, 6]: 0.63 ± 0.09 % ID/g
Biodistribution: Pancreas [2, 6]: 2.01 ± 0.26 % ID/g
Biodistribution: Skin [2, 6]: 0.60 ± 0.09 % ID/g
Biodistribution: Spleen [2, 6]: 5.85 ± 0.93 % ID/g
Biodistribution: Stomach [2, 6]: 0.58 ± 0.19 % ID/g
Biodistribution: Testes [2, 6]: 0.31 ± 0.03 % ID/g
Biodistribution: Thymus [2, 6]: 0.78 ± 0.20 % ID/g
Biodistribution: Thyroid [2, 6]: 8.87 ± 1.06 % ID/g
Biodistribution: Adrenals [2, 7]: 13.21 ± 1.16 % ID/g
Biodistribution: Bladder [2, 7]: 0.87 ± 0.36 % ID/g
Biodistribution: Blood [2, 7]: 0.32 ± 0.05 % ID/g
Biodistribution: Bone [2, 7]: 1.25 ± 0.18 % ID/g
Biodistribution: Brain [2, 7]: 0.23 ± 0.02 % ID/g
Biodistribution: GIT [2, 7]: 1.36 ± 0.22 % ID/g
Biodistribution: Heart [2, 7]: 8.34 ± 0.86 % ID/g
Biodistribution: Kidney [2, 7]: 3.94 ± 0.54 % ID/g
Biodistribution: Liver [2, 7]: 1.18 ± 0.33 % ID/g
Biodistribution: Lungs [2, 7]: 11.58 ± 2.11 % ID/g
Biodistribution: Muscle [2, 7]: 0.91 ± 0.10 % ID/g
Biodistribution: Olfactory bulbs [2, 7]: 0.46 ± 0.11 % ID/g
Biodistribution: Pancreas [2, 7]: 1.97 ± 0.32 % ID/g
Biodistribution: Skin [2, 7]: 0.65 ± 0.08 % ID/g
Biodistribution: Spleen [2, 7]: 6.89 ± 0.80 % ID/g
Biodistribution: Stomach [2, 7]: 0.64 ± 0.11 % ID/g
Biodistribution: Testes [2, 7]: 0.31 ± 0.03 % ID/g
Biodistribution: Thymus [2, 7]: 0.80 ± 0.06 % ID/g
Biodistribution: Thyroid [2, 7]: 9.15 ± 0.87 % ID/g
Biodistribution: Adrenals [2, 8]: 11.24 ± 2.03 % ID/g
Biodistribution: Bladder [2, 8]: 0.84 ± 0.08 % ID/g
Biodistribution: Blood [2, 8]: 0.17 ± 0.00 % ID/g
Biodistribution: Bone [2, 8]: 2.06 ± 0.10 % ID/g
Biodistribution: Brain [2, 8]: 0.12 ± 0.00 % ID/g
Biodistribution: GIT [2, 8]: 1.78 ± 0.04 % ID/g
Biodistribution: Heart [2, 8]: 6.87 ± 0.53 % ID/g
Biodistribution: Kidney [2, 8]: 3.24 ± 0.15 % ID/g
Biodistribution: Liver [2, 8]: 0.67 ± 0.06 % ID/g
Biodistribution: Lungs [2, 8]: 6.40 ± 0.50 % ID/g
Biodistribution: Muscle [2, 8]: 0.50 ± 0.03 % ID/g
Biodistribution: Olfactory bulbs [2, 8]: 0.36 ± 0.05 % ID/g
Biodistribution: Pancreas [2, 8]: 1.20 ± 0.19 % ID/g
Biodistribution: Skin [2, 8]: 0.64 ± 0.07 % ID/g
Biodistribution: Spleen [2, 8]: 5.56 ± 0.67 % ID/g
Biodistribution: Stomach [2, 8]: 0.47 ± 0.05 % ID/g
Biodistribution: Testes [2, 8]: 0.32 ± 0.01 % ID/g
Biodistribution: Thymus [2, 8]: 0.88 ± 0.07 % ID/g
Biodistribution: Thyroid [2, 8]: 18.30 ± 1.00 % ID/g
Biodistribution: Adrenals [2, 9]: 13.51 ± 0.61 % ID/g
Biodistribution: Bladder [2, 9]: 0.99 ± 0.30 % ID/g
Biodistribution: Blood [2, 9]: 0.07 ± 0.00 % ID/g
Biodistribution: Bone [2, 9]: 3.28 ± 0.65 % ID/g
Biodistribution: Brain [2, 9]: 0.07 ± 0.00 % ID/g
Biodistribution: GIT [2, 9]: 2.93 ± 0.39 % ID/g
Biodistribution: Heart [2, 9]: 4.71 ± 0.31 % ID/g
Biodistribution: Kidney [2, 9]: 2.31 ± 0.17 % ID/g
Biodistribution: Liver [2, 9]: 0.31 ± 0.03 % ID/g
Biodistribution: Lungs [2, 9]: 2.42 ± 0.25 % ID/g
Biodistribution: Muscle [2, 9]: 0.24 ± 0.06 % ID/g
Biodistribution: Olfactory bulbs [2, 9]: 0.25 ± 0.03 % ID/g
Biodistribution: Pancreas [2, 9]: 0.57 ± 0.10 % ID/g
Biodistribution: Skin [2, 9]: 0.67 ± 0.17 % ID/g
Biodistribution: Spleen [2, 9]: 2.64 ± 0.36 % ID/g
Biodistribution: Stomach [2, 9]: 0.72 ± 0.24 % ID/g
Biodistribution: Testes [2, 9]: 0.42 ± 0.06 % ID/g
Biodistribution: Thymus [2, 9]: 1.02 ± 0.06 % ID/g
Biodistribution: Thyroid [2, 9]: 7.41 ± 0.68 % ID/g
Uptake in tissues which have known PBR sites ([2]; rats, in vivo biodistribution): high uptake
Tracer uptake after pre-treatment with PK 11195 ([3]; PK 11195 1 mg/kg 5 min prior to tracer): decreased
Tracer uptake after pre-treatment with PK 11195 ([3]; PK 11195 1 mg/kg 5 min prior to tracer, listed as [^18F]PBR132): blocking effect
Tracer uptake in the adrenals after pre-treatment with PK 11195 ([3]; PK 11195 1 mg/kg 5 min prior to tracer, adrenals): increase
Tracer uptake after pre-treatment with Ro 5-4864 ([3]; Ro 5-4864 1 mg/kg 5 min prior to tracer): decreased
Tracer uptake after pre-treatment with Ro 5-4864 ([3]; Ro 5-4864 1 mg/kg 5 min prior to tracer, listed as [^18F]PBR132): blocking effect
Tracer uptake in the adrenals after pre-treatment with Ro 5-4864 ([3]; Ro 5-4864 1 mg/kg 5 min prior to tracer, adrenals): increase
Tracer uptake after pre-treatment with flumazenil (central benzodiazepine ligand) [3]: no effect
Tracer uptake after pre-treatment with flumazenil (central benzodiazepine ligand) ([3]; listed as [^18F]PBR132): does not reduce
Tracer uptake after pre-treatment with the non-radioactive analogue ([3]; non-radioactive analogue 1 mg/kg, PBR-expressing tissues): blocking effect
